This assay has as its system taxadiene synthase. Description: PCR of taxadiene synthase in Taxus baccata callus cultures. The class given is cell-based. Particulars: callus harvested 24 and 48 hours after treatment, 20-25 PCR cycles. As to the method:
Callus was harvested 24 and 48 hours after treatment. An untreated control was also harvested. Samples (500 mg) were frozen in liquid nitrogen and ground to a fine powder. RNA was prepared with an RNEASY™ kit (Qiagen, Valencia, Calif.) as described above.
RNA samples (1.75 μg) from 24 hours post-treatment cultures of Taxus baccata were reverse transcribed using an OMNISCRIPT™ RT kit (Qiagen) with an oligo-dT12-18 primer (Sigma-Aldrich Company, Poole, Dorset, UK). Aliquots (≡0.175 μg RNA) were subject to PCR using a Taq PCR Master Mix kit (Qiagen). Primers were designed from conserved regions of the taxadiene synthases from Taxus chinensis and Taxus brevifolia, and validated by amplification of DNA from Taxus baccata. PCR was carried out at an annealing temperature of 50° C. for 30′; extension was for 1 min at 72° C. Samples were taken after 15, 20, 25, and 30 cycles and run on an agarose gel (FIG. 13). After 20 cycles, a band of the expected size is present in the treated samples (slightly more in the 24 hour harvest) but not in the control.

For the compound `CC/C=C\CC1C(=O)CCC1CC(=O)OC` (stereo not shown) [methyl jasmonate], the “induction of taxadiene cyclase” value is “specific induction of the taxadiene cyclase”.

The record behind these values is patent publication US20030175678A1, “Methods for identifying genes regulating desired cell phenotypes” (priority 2001, published 2003).
